Measurements published in patent US12655116B2, “Substituted isophthalic acid diamides” (Bayer Aktiengesellschaft, priority 2020, dated 2026).

How the values were obtained:
ABUTH [1] = assay: Pre-emergence herbicidal action against ABUTH; type: in vivo, Abutilon theophrasti; details: Abutilon theophrasti, 504 h; for pest or weed control at 80 g/ha: scored visually after 3 weeks vs untreated controls (100% = plants have died, 0% = like control plants); for pest or weed control at 20 g/ha: dosage 20 g/ha, scored visually after 3 weeks vs untreated controls, 100% = plants have died, 0% = like control plants, read-out: Pre-emergence action against ABUTH (herbicidal activity in percent)
Outline: (§1)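 Herbicidal effect was assessed 3 weeks after treatment by visual comparison with untreated controls, 100% denoting dead plants. Aqueous WP or EC preparations had been applied at 600 to 800 l/ha with 0.2% wetting agent to the soil covering freshly sown seeds.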

ALOMY [2] = assay: Pre-emergence herbicidal action against ALOMY; type: in vivo, Alopecurus myosuroides; details: Alopecurus myosuroides, 504 h; 80 g/ha, pre-emergence, scored visually after 3 weeks vs untreated controls (100% = plants have died, 0% = like control plants)
Outline: as §1

AMARE [3] = assay: Pre-emergence herbicidal action against AMARE; type: in vivo, Amaranthus retroflexus; details: Amaranthus retroflexus, 504 h, scored visually after 3 weeks vs untreated controls, 100% = plants have died, 0% = like control plants
Outline: as §1

AVEFA [4] = assay: Pre-emergence herbicidal action against AVEFA; type: in vivo, Avena fatua; details: Avena fatua, 504 h; 80 g/ha, pre-emergence
Outline: as §1

ECHCG [5] = assay: Pre-emergence herbicidal action against ECHCG; type: in vivo, Echinochloa crus-galli; details: Echinochloa crus-galli, 504 h, 80 g/ha
Outline: as §1

LOLRI [6] = assay: Pre-emergence herbicidal action against LOLRI; type: in vivo, Lolium rigidum; details: Lolium rigidum, 504 h, 80 g/ha
Outline: as §1

MATIN [7] = assay: Pre-emergence herbicidal action against MATIN; type: in vivo, Matricaria inodora; details: Tripleurospermum inodorum, 504 h; for pest or weed control at 20 g/ha: dosage 20 g/ha; for pest or weed control at 80 g/ha: dosage 80 g/ha
Outline: as §1

PHBPU [8] = assay: Pre-emergence herbicidal action against PHBPU; type: in vivo, Pharbitis purpurea; details: Ipomoea purpurea, 504 h, dosage 80 g/ha
Outline: as §1

SETVI [9] = assay: Pre-emergence herbicidal action against SETVI; type: in vivo, Setaria viridis; details: Setaria viridis, 504 h, dosage 80 g/ha
Outline: as §1

VIOTR [10] = assay: Pre-emergence herbicidal action against VIOTR; type: in vivo, Viola tricolor; details: Viola tricolor, 504 h; for pest or weed control at 20 g/ha: dosage 20 g/ha; for pest or weed control at 80 g/ha: dosage 80 g/ha
Outline: as §1

DIGSA [11] = assay: Pre-emergence herbicidal action against DIGSA; type: in vivo, Digitaria sanguinalis; details: Digitaria sanguinalis, 504 h; for pest or weed control at 20 g/ha: dosage 20 g/ha; for pest or weed control at 80 g/ha: dosage 80 g/ha
Outline: as §1

ALOMY [12] = assay: Post-emergence herbicidal action against ALOMY; type: in vivo, Alopecurus myosuroides; details: Alopecurus myosuroides, 504 h, visual assessment about 3 weeks after treatment vs untreated controls; for pest or weed control at 5 g/ha: dosage 5 g/ha; for pest or weed control at 20 g/ha: dosage 20 g/ha
Outline: (§2)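 Herbicidal effect was scored visually in percent after about 3 weeks in the greenhouse. Plants had been raised in sandy loam and treated post-emergence at the one-leaf stage with formulated compound at 600 to 800 l/ha water plus 0.2% wetting agent.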

AMARE [13] = assay: Post-emergence herbicidal action against AMARE; type: in vivo, Amaranthus retroflexus; details: Amaranthus retroflexus, 504 h, 20 g/ha, visual assessment about 3 weeks after treatment, 100% = plants have died, 0% = like control plants
Outline: as §2

AVEFA [14] = assay: Post-emergence herbicidal action against AVEFA; type: in vivo, Avena fatua; details: Avena fatua, 504 h, 20 g/ha, visual assessment about 3 weeks after treatment, 100% = plants have died, 0% = like control plants
Outline: as §2

ECHCG [15] = assay: Post-emergence herbicidal action against ECHCG; type: in vivo, Echinochloa crus-galli; details: Echinochloa crus-galli, 504 h; for pest or weed control at 20 g/ha: dosage 20 g/ha
Outline: as §2

LOLRI [16] = assay: Post-emergence herbicidal action against LOLRI; type: in vivo, Lolium rigidum; details: Lolium rigidum, 504 h, dosage 20 g/ha
Method: Seeds of monocotyledonous and dicotyledonous weed and crop plants are laid out in sandy loam soil in wood-fiber pots, covered with soil and cultivated in a greenhouse under good growth conditions. 2 to 3 weeks after sowing, the test plants are treated at the one-leaf stage. The compounds of the invention, formulated in the form of wettable powders (WP) or as emulsion concentrates (EC), are then sprayed onto the green parts of the plants in the form of an aqueous suspension or emulsion at a water application rate equivalent to 600 to 800 l/ha, with addition of 0.2% wetting agent. After the test plants have been left to stand in the greenhouse under optimal growth conditions for about 3 weeks, the action of the preparations is assessed visually in comparison to untreated controls (herbicidal action in percent (%): 100% activity=the plants have died, 0% activity=like control plants). […] The tables below illustrate, in an illustrative manner, the post-emergence herbicidal action of the compounds of the invention, the herbicidal activity being stated in percent.

PHBPU [17] = assay: Post-emergence herbicidal action against PHBPU; type: in vivo, Pharbitis purpurea; details: Ipomoea purpurea, 504 h; for pest or weed control at 20 g/ha: dosage 20 g/ha
Outline: as §2

SETVI [18] = assay: Post-emergence herbicidal action against SETVI; type: in vivo, Setaria viridis; details: Setaria viridis, 504 h, dosage 20 g/ha
Outline: as §2

VERPE [19] = assay: Post-emergence herbicidal action against VERPE; type: in vivo, Veronica persica; details: Veronica persica, 504 h
Outline: as §2

DIGSA [20] = assay: Post-emergence herbicidal action against DIGSA; type: in vivo, Digitaria sanguinalis; details: Digitaria sanguinalis, 504 h
Outline: as §2

POLCO = assay: Pre-emergence herbicidal action against POLCO; type: in vivo, Polygonum convolvulus; details: Fallopia convolvulus, 504 h, dosage 80 g/ha
Outline: as §1

VERPE [21] = assay: Pre-emergence herbicidal action against VERPE; type: in vivo, Veronica persica; details: Veronica persica, 504 h
Outline: as §1

ABUTH [22] = assay: Post-emergence herbicidal action against ABUTH; type: in vivo, Abutilon theophrasti; details: Abutilon theophrasti, 504 h, visual assessment about 3 weeks after treatment vs untreated controls
Outline: as §2

MATIN [23] = assay: Post-emergence herbicidal action against MATIN; type: in vivo, Matricaria inodora; details: Tripleurospermum inodorum, 504 h, dosage 20 g/ha
Outline: as §2

VIOTR [24] = assay: Post-emergence herbicidal action against VIOTR; type: in vivo, Viola tricolor; details: Viola tricolor, 504 h, 20 g/ha
Outline: as §2

SMILES	pest or weed control at 80 g/ha (ABUTH [1])	pest or weed control at 20 g/ha (ABUTH [1])	pest or weed control at 80 g/ha (ALOMY [2])	pest or weed control at 20 g/ha (AMARE [3])	pest or weed control at 80 g/ha (AMARE [3])	pest or weed control at 80 g/ha (ECHCG [5])	pest or weed control at 80 g/ha (LOLRI [6])	pest or weed control at 20 g/ha (MATIN [7])	pest or weed control at 80 g/ha (MATIN [7])	pest or weed control at 80 g/ha (PHBPU [8])	pest or weed control at 80 g/ha (SETVI [9])	pest or weed control at 20 g/ha (VIOTR [10])	pest or weed control at 80 g/ha (VIOTR [10])	pest or weed control at 20 g/ha (DIGSA [11])	pest or weed control at 80 g/ha (DIGSA [11])	pest or weed control at 5 g/ha (ALOMY [12])	pest or weed control at 20 g/ha (ALOMY [12])	pest or weed control at 20 g/ha (AMARE [13])	pest or weed control at 20 g/ha (AVEFA [14])	pest or weed control at 20 g/ha (ECHCG [15])	further results
Cn1nnnc1NC(=O)c1ccc(Br)c(C(=O)NCC(F)(F)F)c1Cl [Example 1-181]	100%	90%	100%	100%	100%	100%	80%	90%	100%	80%	100%	100%	100%	100%	100%	80%	100%	100%	90%	80%	pest or weed control at 80 g/ha (AVEFA [4]): 80%; pest or weed control at 5 g/ha (ECHCG [15]; dosage 5 g/ha): 80%; pest or weed control at 20 g/ha (LOLRI [16]): 80%; pest or weed control at 20 g/ha (PHBPU [17]): 90%; pest or weed control at 20 g/ha (SETVI [18]): 90%; pest or weed control at 20 g/ha (VERPE [19]): 90%; pest or weed control at 5 g/ha (DIGSA [20]): 90%; pest or weed control at 20 g/ha (DIGSA [20]): 90%
CNC(=O)c1c(C(F)(F)C(F)(F)F)ccc(C(=O)Nc2nnnn2C)c1Cl [Example 1-165]	100%	90%	100%	100%	100%	100%	80%	100%	100%	100%	100%	90%	100%	100%	100%	90%	100%	90%	90%	90%	pest or weed control at 80 g/ha (POLCO): 90%; pest or weed control at 20 g/ha (VERPE [21]; dosage 20 g/ha): 80%; pest or weed control at 80 g/ha (VERPE [21]; dosage 80 g/ha): 100%; pest or weed control at 5 g/ha (ABUTH [22]; dosage 5 g/ha): 90%; pest or weed control at 20 g/ha (ABUTH [22]; dosage 20 g/ha): 90%; pest or weed control at 20 g/ha (LOLRI [16]): 80%; pest or weed control at 20 g/ha (MATIN [23]): 80%; pest or weed control at 5 g/ha (PHBPU [17]; dosage 5 g/ha): 90%; pest or weed control at 20 g/ha (PHBPU [17]): 90%; pest or weed control at 20 g/ha (SETVI [18]): 90%; pest or weed control at 5 g/ha (VERPE [19]; 5 g/ha): 80%; pest or weed control at 20 g/ha (VERPE [19]): 80%; pest or weed control at 20 g/ha (VIOTR [24]): 80%; pest or weed control at 5 g/ha (DIGSA [20]): 90%; pest or weed control at 20 g/ha (DIGSA [20]): 90%
